Laboratory results from patent publication US3963758A, “2-(Benzofuroyl)phenyl acetic acids” (Serdex - Societe d'Etudes, de Recherches, de Diffusion et …, priority 1973, dated 1976).

What was measured:
[1] = Acute toxicity, oral, mice; conditions: mouse, in vivo, fasting mice, 14 days observation
Description: (§1) Acute toxicity is determined by oral administration of the test material in fasting mice and rats.
(§2) The compound of Example 1 is homogeneously suspended in a carrier comprising a 3% gum arabic solution.
(§3) The animals are kept under observation during 14 days after the treatment.

[2] = tested on: Bradykinine-induced bronchoconstriction; test: Anti-bradykinine activity (Konzett and Rossler technique); assay type: in vivo, guinea-pig; conditions: I.V., dosage of 100 γ/kg; bradykinine 20 γ/kg I.V.
From the text: c. Anti-bradykinine activity
The antagonistic action of the compound described in Example 1 was studied with respect to a Bradykinine-induced bronchoconstriction in guinea-pig (20 γ/kg I.V.).
The technique used was the conventional technique described by KONZETT and ROSSLER (Arch. Exp. Path. Pharmakol., 195, 71-74) and later by HARICHAUX (C.R. Soc. Biol., 158, 12, 2437-2441).

[3] = tested on: adjuvant arthritis (Mycobacterium butyricum); test: Adjuvant arthritis; assay type: in vivo; conditions: at 20 mg/kg; oral, daily, 14th to 28th day; male rats
Description: According to the works by PEARSON C. M. (J. Chronic. Dis., 1963, 16, 863-74), JONES R. D. and WARD J. R. (Recent progress in hormone research, vol. XIX, 1963, Ac. Press), WARD T. R., JONES R. S. (Arthritis and Rheumatism, 1962, 5, 557-64).
The tests are carried out in male rats weighing 151 g ± 20 g. On day 0, the animals are given intradermally, at the base of the tail, an 0.05 ml injection of a suspension of Mycobacterium butyricum in paraffin oil (12 mg killed microbial bodies/ml). The animals are selected on the 14th day and are distributed into homogeneous lots of 15 animals.
The treatment is administered orally, daily, from the 14th to the 28th day.
The chronic arthritis is evaluated according to two criteria:
Arthritis index, by separate scoring of the injuries (erythema, edema, distortions) of each of the four limbs (according to a scoring scale from 0 to 3; maximum score: 12) in each animal on the 14th day, the 18th day, the 21st day, the 24th day and the 28th day (the scoring is effected blind, by two different experimenters).
Sedimentation rate according to KOWARSKI (pipette held at an angle of 45°; recording time: 30 minutes).
The blood sample is taken by the retro-orbicular route. The determination is effected on the 14th, the 21st and the 28th day. […]

[4] = tested on: carrageenin-induced edema; test: Acute carrageenin-induced edema; assay type: in vivo; conditions: oral, male rats; for ED50: Rattus norvegicus; for ED50 / Carrageenin-induced edema ED50: 1 hour prior to carrageenin, edema at 3 hours; for Carrageenin-induced edema percent protection: 3 hours; for Carrageenin-induced edema ED50: 180 min
Description: c. Anti-inflammatory activity
1- Acute carrageenin-induced edema (Winster C. A., Risley E. A., Nuss G.W., Proc. Soc. Biol. Med., 1962, 3, 544-7)
Subplantar injection in the paw of rats of 0.05 ml of an aqueous gel containing 1% carrageenin induces a local edema which may be measured by means of an electric mercury plethysmometer.
Determination of the volume of the forepaw prior, and three hours after the carrageenin injection, makes it possible to calculate the percent inflammation.
The treatment is administered orally, one hour prior to carrageenin administration.
The tests are conducted only with homogeneous lots of 10 male rats weighing 180 g ± 10 g.
The resulting edema is evaluated for each animal by means of the ratio: [formula] in which:
Vo of the paw at time 3 hrs Vo = volume of the paw at time zero
The protection noted under the effect of the test material may be evaluated by comparing the percent edema determined in the treated lot with respect to the reference lot.

[5] = tested on: phenylbenzoquinone-induced writhing movements; test: Analgesic activity, Siegmund Test (phenylbenzoquinone writhing); assay type: in vivo; conditions: mice; for ED50: Mus musculus, ip; for ED50 / Siegmund ED50: test material 1 hour before phenylbenzoquinone i.p.
Description: Siegmund Test (Proc. Soc. Exp. Biol. Med., 1957, 95, 729-31)
Intraperitoneal injection of 0.25 ml of an aqueous-alcoholic 2-phenyl-1,4-benzoquinone solution at a concentration of 0.02% induces in mice a specific syndrome characterized by the stretching of the hind paws and writhing movements of the trunk.
The tests are carried out with homogeneous lots of 20-30 mice having an average weight of 20 g.
The animals are administered the test material at time zero. One hour later, phenylbenzoquinone is administered by the intraperitoneal route. The animals are individually kept under observation during 5 minutes, between the fifth and the tenth minute after phenylbenzoquinone injection.
The present activity of the test material is evaluated by comparing the number of writhing movements of the treated animals with respect to the reference animals.

[6] = Acute toxicity, oral, rats; conditions: rat, in vivo, fasting rats, 14 days observation
Description: as §1, §2, §3

[7] = tested on: Turfyl nicotinate (Trafuril)-induced erythema; test: Turfyl nicotinate (Trafuril)-induced erythema; assay type: in vivo; conditions: oral, male albino guinea-pigs; for ED50: Cavia porcellus; for ED50 / Trafuril ED50: 1 hour prior to test
Description: 2 - Turfyl nicotinate (Trafuril) -induced erythema
A slight modification of the HAINING method (Br. Jl. Pharmacol., 1963, 21, 104-12) is used:
The test is carried out with homogeneous lots of 6-12 male albino guinea-pigs weighing 300-400 g, after careful depilation of the skin of their backs on the previous day.
On the day of the test, a disk for antibiotic sensitivity determination impregnated with a 5% alcoholic Turfyl nicotinate solution is applied during one minute on the lumbar area.
The effect produced is recorded after five minutes.
The results are rated according to an "all or nothing" scale, according to whether or not an erythema appears at the locus of application of the disk.
The treatment is administered orally one hour prior to the test, under an uniform volume of 1 ml/kg body weight; the test materials are homogeneously suspended with 3% gum arabic.
The reference animals are administered an equal volume of carrier.
The percent erythema obtained in the treated animals is compared with that obtained in the simultaneously tested reference lot.

CC(C(=O)O)c1cccc(C(=O)c2cc3ccccc3o2)c1 (racemic) [Example 1, 2-[3-(2-benzofuroyl)-phenyl]-propionic acid]
LD50 at 336 h [1]: 2500 mg/kg | Inhibition of bradykinine-induced bronchospasm [2]: inhibited | Activity in adjuvant arthritis [3]: active | ED50 [4]: 9 mg/kg | ED50 [5]: 0.72 mg/kg | LD50 at 336 h [6]: 1300 mg/kg | ED50 [7]: 3.6 mg/kg

O=C(O)Cc1ccc(C(=O)c2cc3ccccc3o2)cc1 [Example 2, [4-(2-benzofuroyl)-phenyl]acetic acid]
Carrageenin-induced edema percent protection ([4]; 50 mg): 15% | Siegmund percent protection ([5]; 50 mg): 28%

O=C(O)Cc1cccc(C(=O)c2cc3ccccc3o2)c1 [Example 3, [3-(2-Benzofuroyl)-phenyl]acetic acid]
Carrageenin-induced edema percent protection ([4]; 100 mg): 10% | Siegmund percent protection ([5]; 10 mg): 32% | Siegmund percent protection ([5]; 50 mg): 50% | Trafuril percent protection ([7]; 100 mg): 17%

CC(C(=O)O)c1ccc(C(=O)c2cc3ccccc3o2)cc1 (stereo not shown) [Example 4, 2-[4-(2-Benzofuroyl)-phenyl]propionic acid]
ED50 [4]: 170 mg/kg | ED50 [5]: 5 mg/kg | ED50 [7]: 115 mg/kg

Cc1c(C(=O)c2ccc(CC(=O)O)cc2)oc2ccccc12 [Example 5, 4-[2-(3-Methyl-benzofuroyl)]-phenyl acetic acid]
Carrageenin-induced edema percent protection ([4]; 100 mg): 15% | Siegmund percent protection ([5]; 50 mg): 14%

COc1ccc(C(C)C(=O)O)cc1C(=O)c1cc2ccccc2o1 (stereo not shown) [Example 6, 2-[3-(2-benzofuroyl)-4-methoxy-phenyl]propionic acid]
ED50 [4]: > 20 mg/kg | ED50 [5]: ~15 mg/kg

COc1ccc2oc(C(=O)c3cccc(C(C)C(=O)O)c3)cc2c1 (stereo not shown) [Example 7]
ED50 [4]: < 20 mg/kg | ED50 [5]: < 60 mg/kg

CC(C(=O)O)c1cccc(C(=O)c2cc3ccccc3o2)c1 (stereo not drawn) [Example 9, d-2-[3-(2-Benzofuroyl)-phenyl]propionic acid]
Carrageenin-induced edema ED50 [4]: 8 mg/kg | Siegmund ED50 [5]: < 6 mg/kg | Trafuril ED50 [7]: 2.3 mg/kg

CC(C(=O)O)c1cccc(C(=O)c2cc3ccccc3o2)c1 (stereo not drawn) [Example 10, l-2-[3-(2-Benzofuroyl)-phenyl]propionic acid]
Carrageenin-induced edema ED50 [4]: ~11.5 mg/kg | Siegmund ED50 [5]: < 6 mg/kg | Trafuril ED50 [7]: 8 mg/kg
